# Laboratory results published in ChEMBL document CHEMBL1201862, “PubChem BioAssay data set” (2004).
#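 Tested at 5 concentrations; 48 h exposure; 96-well plates; endpoints linearly interpolated, else capped at highest concentration. GI50 = concentration required for 50% inhibition of growth.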 Calls of active or inactive are those of the source. Cut-off read from the data, not from the text of the source: active = GI50 up to about 1.1 µM and inactive = higher.
# Key:
# Assay in all cases: NCI tumour cell line growth inhibition, 48 h
# 786-0 = system: 786-0
# A498 = system: A498
# A549 = system: A549
# ACHN = system: ACHN
# BT-549 = system: BT-549
# CAKI-1 = system: CAKI-1
# CCRF-CEM = system: CCRF-CEM
# DU-145 = system: DU-145
# EKVX = system: EKVX
# HCC 2998 = system: HCC 2998
# HCT-116 = system: HCT-116
# HCT-15 = system: HCT-15
# HL-60 = system: HL-60
# HOP-62 = system: HOP-62
# HOP-92 = system: HOP-92
# HT-29 = system: HT-29
# Hs-578T = system: Hs-578T
# IGROV-1 = system: IGROV-1
# K562 = system: K562
# KM12 = system: KM12
# LOX IMVI = system: LOX IMVI
# MCF7 = system: MCF7
# MDA-MB-231 = system: MDA-MB-231
# MDA-MB-435 = system: MDA-MB-435
# MDA-N = system: MDA-N
# MOLT-4 = system: MOLT-4
# Malme-3M = system: Malme-3M
# NCI-H226 = system: NCI-H226
# NCI-H23 = system: NCI-H23
# NCI-H460 = system: NCI-H460
# NCI-H522 = system: NCI-H522
# NCI/ADR-RES = system: NCI/ADR-RES
# OVCAR-3 = system: OVCAR-3
# OVCAR-4 = system: OVCAR-4
# OVCAR-5 = system: OVCAR-5
# OVCAR-8 = system: OVCAR-8
# PC-3 = system: PC-3
# RPMI-8226 = system: RPMI-8226
# RXF 393 = system: RXF 393
# SF-268 = system: SF-268
# SF-295 = system: SF-295
# SF-539 = system: SF-539
# SK-MEL-28 = system: SK-MEL-28
# SK-MEL-2 = system: SK-MEL-2
# SK-MEL-5 = system: SK-MEL-5
# SK-OV-3 = system: SK-OV-3
# SN12C = system: SN12C
# SNB-19 = system: SNB-19
# SNB-75 = system: SNB-75
# SR = system: SR
# SW-620 = system: SW-620
# T47D = system: T47D
# TK-10 = system: TK-10
# U-251 = system: U-251
# UACC-257 = system: UACC-257
# UACC-62 = system: UACC-62
# UO-31 = system: UO-31
compound,measurement,setting,value
Nc1nc(Cl)cc(NCC2(O)CC2)n1,GI50,786-0,> 100 µM (inactive)
same,GI50,A498,> 100 µM (inactive)
same,GI50,A549,> 100 µM (inactive)
same,GI50,ACHN,> 100 µM (inactive)
same,GI50,BT-549,> 100 µM (inactive)
same,GI50,CAKI-1,> 100 µM (inactive)
same,GI50,CCRF-CEM,> 100 µM (inactive)
same,GI50,DU-145,> 100 µM (inactive)
same,GI50,EKVX,> 100 µM (inactive)
same,GI50,HCC 2998,> 100 µM (inactive)
same,GI50,HCT-116,> 100 µM (inactive)
same,GI50,HCT-15,> 100 µM
same,GI50,HL-60,> 100 µM (inactive)
same,GI50,HOP-62,> 100 µM (inactive)
same,GI50,HOP-92,> 100 µM (inactive)
same,GI50,HT-29,> 100 µM (inactive)
same,GI50,Hs-578T,> 100 µM (inactive)
same,GI50,IGROV-1,> 100 µM (inactive)
same,GI50,K562,> 100 µM (inactive)
same,GI50,KM12,> 100 µM (inactive)
same,GI50,LOX IMVI,> 100 µM (inactive)
same,GI50,MCF7,> 100 µM (inactive)
same,GI50,MDA-MB-231,> 100 µM (inactive)
same,GI50,MDA-MB-435,> 100 µM (inactive)
same,GI50,MDA-N,> 100 µM (inactive)
same,GI50,MOLT-4,> 100 µM (inactive)
same,GI50,Malme-3M,> 100 µM (inactive)
same,GI50,NCI-H226,> 100 µM (inactive)
same,GI50,NCI-H23,> 100 µM (inactive)
same,GI50,NCI-H460,> 100 µM (inactive)
same,GI50,NCI-H522,> 100 µM (inactive)
same,GI50,NCI/ADR-RES,> 100 µM (inactive)
same,GI50,OVCAR-3,> 100 µM (inactive)
same,GI50,OVCAR-4,> 100 µM (inactive)
same,GI50,OVCAR-5,> 100 µM (inactive)
same,GI50,OVCAR-8,> 100 µM (inactive)
same,GI50,PC-3,> 100 µM (inactive)
same,GI50,RPMI-8226,> 100 µM (inactive)
same,GI50,RXF 393,> 100 µM (inactive)
same,GI50,SF-268,> 100 µM (inactive)
same,GI50,SF-295,> 100 µM (inactive)
same,GI50,SF-539,> 100 µM (inactive)
same,GI50,SK-MEL-28,> 100 µM (inactive)
same,GI50,SK-MEL-2,> 100 µM (inactive)
same,GI50,SK-MEL-5,> 100 µM (inactive)
same,GI50,SK-OV-3,> 100 µM (inactive)
same,GI50,SN12C,> 100 µM (inactive)
same,GI50,SNB-19,> 100 µM (inactive)
same,GI50,SNB-75,> 100 µM (inactive)
same,GI50,SR,> 100 µM (inactive)
same,GI50,SW-620,> 100 µM (inactive)
same,GI50,T47D,> 100 µM (inactive)
same,GI50,TK-10,> 100 µM (inactive)
same,GI50,U-251,> 100 µM (inactive)
same,GI50,UACC-257,> 100 µM (inactive)
same,GI50,UACC-62,> 100 µM (inactive)
same,GI50,UO-31,> 100 µM (inactive)
